Here are results for one compound from US20170105953A1, “METHOD FOR SUPPRESSING DIABETES AND/OR HEPATIC LIPIDS USING TORMENTIC ACID” (priority 2015, published 2017).

Several values for one entry are separate records, joined by “and”; a condition that tells them apart may be missing. Equal entries are not always repeated. Entries after “also recorded” stand apart in the source; their conditions may differ.

Assay [1] deals with GLUT4. Description: western blot, GLUT4 protein in skeletal muscle. The following applies: HF diet-fed mice. In kind it is in vivo, C57BL/6J mice. An excerpt:
FIG. 4A is a western blot analysis showing the protein contents of GLUT4 in skeletal muscle, and phospho-AMPK (Thr172) and total-AMPK (Thr172) in both liver tissue and skeletal muscle, and phospho-Akt (Ser473) and total-Akt (Ser473) in skeletal muscle of the mice receiving tormentic acid (PTA) by oral gavage for 4 weeks; and
FIG. 4B is a diagram showing the protein contents of GLUT4 in skeletal muscle, the expression levels of phospho-AMPK (Thr172) to total AMPK in both liver tissue and skeletal muscle, and quantified results from FIG. 4A for the phosphorylation status of Akt (p-Akt normalized to total Akt (pAkt/Akt)) in skeletal muscle of the mice receiving tormentic acid (PTA) by oral gavage for 4 weeks.
(§1) For part 2, C57BL/6J mice (4 weeks old) were obtained from the National Laboratory Animal Breeding and Research Center. The mice were divided randomly into two groups after 7 days acclimation. The control (CON) group (n=9) was fed a low-fat diet (diet 12450B, Research Diets, Inc., New Brunswick, N.J., USA), whereas the experimental group was fed a 45% high-fat diet (diet 12451, Research Diets, Inc.) for 12 weeks. The compositions of the experimental diets are given in previous studies. […]
(A western blot detects proteins with antibodies after separation by electrophoresis.)

Assay [2] can be described thus: hepatic lipids in high-fat diet-fed mice. It is filed as in vivo. The settings on record: HF diet-fed C57BL/6J mice, mean ± SE, n=9. From the text: For part 2, C57BL/6J mice (4 weeks old) were obtained from the National Laboratory Animal Breeding and Research Center. The mice were divided randomly into two groups after 7 days acclimation. The control (CON) group (n=9) was fed a low-fat diet (diet 12450B, Research Diets, Inc., New Brunswick, N.J., USA), whereas the experimental group was fed a 45% high-fat diet (diet 12451, Research Diets, Inc.) for 12 weeks. The compositions of the experimental diets are given in previous studies. After 8 weeks, the high-fat treated mice were randomly subdivided into four groups (n=9) including PTA1 (0.06 g/kg/day), PTA2 (0.12 g/kg/day) or rosiglitazone (Rosi; 1% methylcellulose, 10 mg/kg body weight) (GlaxoSmithKline) or vehicle and treated by oral gavage one time per day from the 9th to 12th weeks, while the mice were still on the high-fat diet, whereas the CON and high-fat control (HF) mice were treated with vehicle only. At the end, food was withheld from the animals (from 10 p.m. to 10 a.m.). The next day, the mice were sacrificed for blood and tissue collection and analysis. Livers, skeletal muscles, and white adipose tissues (WATs) (including epididymal, mesenteric, and retroperitoneal WAT) were weighed and excised, followed by immediate freezing, and kept at −80° C. for target gene analysis. Heparin (30 units/mL) (Sigma) was added to blood samples. Plasma samples were collected within 30 min by centrifugation at 1600 g for 15 min at 4° C. Plasma was obtained for insulin and leptin assay.
Hepatic lipids were extracted using a previously described protocol. For the hepatic lipid extraction, 0.375 g liver samples were homogenized with 1 mL of distilled water for 5 min. Finally, the dried pellet was resuspended in 0.5 mL of ethanol and analyzed using a triglycerides kit as used for serum lipids.

For assay [3], the system named is FAS. Description: semiquantitative RT-PCR, liver FAS mRNA. In kind it is in vivo, C57BL/6J mice. The settings on record: HF diet-fed mice, normalized to GAPDH, vs HF group.
Text: as §1
(§2) Total RNA from the liver tissue was isolated with a Trizol reagent (Molecular Research Center, Inc., Cincinnati, Ohio, USA) according to the manufacturer's directions. The integrity of the extracted total RNA was examined by 2% agarose gel electrophoresis, and the RNA concentration was determined by ultraviolet (UV) light absorbency at 260 and 280 nm (spectrophotometer U-2800A, Hitachi). […] The relative density of the band was evaluated using AlphaDigiDoc 1201 software (Alpha Innotech Co., San Leandro, Calif., USA). All of the measured PCR products were normalized to the amount of cDNA of GAPDH in each sample. […]

In assay [4] the test system is PPARα. Description: semiquantitative RT-PCR, liver PPARα mRNA. It is filed as in vivo, C57BL/6J mice. The settings on record: HF diet-fed mice, normalized to GAPDH.
Text: as §1, §2

[5] abbreviates: PTA1 0.06 g/kg/day oral gavage 4 weeks.
Where [6] appears, read: PTA2 0.12 g/kg/day oral gavage 4 weeks.

`C[C@@H]1CC[C@]2(C(=O)O)CC[C@]3(C)C(=CC[C@@H]4[C@@]5(C)C[C@@H](O)[C@H](O)C(C)(C)[C@@H]5CC[C@]43C)[C@@H]2[C@]1(C)O` [PTA, tormentic acid]: the figures for the “membrane protein levels of GLUT4” value in assay [1] (PTA1 0.06 g/kg/day 4 weeks) and in assay [1] (PTA2 0.12 g/kg/day 4 weeks) were “significantly increased” and “significantly increased; also recorded: marked increases”, respectively. In addition, the entries for the “Liver lipids: Total lipid” value in assay [2] (setting [5]) and in assay [2] (setting [6]) were 80.1 ± 4.6 mg/g and 68.2 ± 5.9 mg/g, respectively. In addition, the “Liver lipids: Triacylglycerol” value in assay [2] (setting [5]) was 51.7 ± 5.1 µmol/g; in assay [2] (setting [6]), 35.2 µmol/g and 35.2 ± 4.9 µmol/g. Moreover, the “mRNA level of FAS in liver” value in assay [3] (PTA1 0.06 g/kg/day 4 weeks) and in assay [3] (PTA2 0.12 g/kg/day 4 weeks) was “significantly decrease” throughout. For the same compound, the “mRNA levels of PPARα in liver” value in assay [4] (PTA1 0.06 g/kg/day 4 weeks) and in assay [4] (PTA2 0.12 g/kg/day 4 weeks) was “increased” each time.
